Measured values reported in publication PMC9235172, “SHTXTHHly, an extracellular secretion platform for the preparation of bioactive peptides and proteins in Escherichia coli” (Microbial Cell Factories, 2022).
Residues, ends and D or L forms follow the SMILES beside them.

Tests used:
[1] = system: E. coli 25922; conditions: E. coli 25922 in MHB, 37 °C, 18 h, OD600, triplicate
Procedure: Fig. 4 Bioactivities determination of the produced AMPs. Different concentrations (0–4000 nM) of cCeA and rCeA (A), or cLL37 and rLL37 (B), were incubated with E. coli 25,922 at 37 °C for 18 h, then the OD600 values were detected. Different concentrations (0–64 μM) of cA12 and rA12 (C) were incubated with U87 MG cells for 8 h, and the number of live cells was measured with the CCK-8 reagent.
Overnight cultures of E. coli 25922 were diluted with fresh Mueller–Hinton Broth (MHB) to an optical density at 600 nm (OD600) at 0.1 and further diluted at 1:100 with fresh MHB. Then 100 μL bacterial suspension was added in triplicate to the 96-well plate. The commercial (APeptides, China) and bio-produced Cecropin A or LL37 were serially diluted with MHB medium and added into the 96-well plate to final concentrations of 2 to 2000 nM. The plate was incubated at 37 °C for 18 h, and the OD600 values were measured with Synergy LX multi-mode reader (BioTek, USA). Broth with bacterial inoculum without AMP and broth alone were used as control groups in which the relative biomass was set as 1 and 0, respectively.

[2] = system: Mo7e cells; experiment: Mo7e cell proliferation, CCK-8; format: cell-based; conditions: 1 pM-100 nM, 4 days, read-out: EC50, promotion of Mo7e cells' proliferation
Procedure: Fig. 5 Bioactivities determination of RGDS, IL-15, and ADH in the SHTXTHHly fusion form. U87 MG cells were incubated with SHTRGDSTHHly/SHTRGESTHHly, mouse anti-S tag antibody, and the second antibody in sequence, then the cell staining was measured by FACS (A). U87 MG cells were incubated with SHTRGDSTHHly/SHTRGESTHHly and transferred into a fibronectin-coated plate. At different times, the attached cells were subjected to the CCK-8 reagent for quantification (B). In other experiments, cells were stained with DiO dye (green) and observed with a fluorescence microscope (C). Mo7e cells were incubated with different concentrations (1 pM-100 nM) of IL-15 and SHTIL15THHly for 4 days, and the cell numbers were measured with a CCK-8 reagent (D). The activities of ADH and SHTADHTHHly were compared using Ethyl Acetoacetate as the substrate and NADH as the co-factor (E). The activity was measured at 340 nm to monitor the decrease in the absorbance of NADH quantitatively. S: Slope. […] PBS is a blank control.
Mo7e cells were plated in a 96-well plate with a cell number of twenty thousand per well. After 4 h incubation, serially diluted IL-15 and SHTIL15THHly were added. After 4 days of incubation, the proliferation of cells was measured using the CCK-8 reagent.

| Compound | minimum inhibitory concentration (MIC) [1] | EC50 [2] |
| --- | --- | --- |
| CC[C@H](C)[C@H](NC(=O)[C@H](CCCCN)NC(=O)[C@H](CCC(=O)O)NC(=O)[C@H](CCCCN)NC(=O)[C@H](CO)NC(=O)[C@H](CCCCN)NC(=O)[C@H](CCCNC(=N)N)NC(=O)[C@H](Cc1ccccc1)NC(=O)[C@H](Cc1ccccc1)NC(=O)[C@H](CC(=O)O)NC(=O)CNC(=O)[C@H](CC(C)C)NC(=O)[C@@H](N)CC(C)C)C(=O)NCC(=O)N[C@@H](CCCCN)C(=O)N[C@@H](CCC(=O)O)C(=O)N[C@@H](Cc1ccccc1)C(=O)N[C@@H](CCCCN)C(=O)N[C@@H](CCCNC(=N)N)C(=O)N[C@H](C(=O)N[C@H](C(=O)N[C@@H](CCC(N)=O)C(=O)N[C@@H](CCCNC(=N)N)C(=O)N[C@H](C(=O)N[C@@H](CCCCN)C(=O)N[C@@H](CC(=O)O)C(=O)N[C@@H](Cc1ccccc1)C(=O)N[C@@H](CC(C)C)C(=O)N[C@@H](CCCNC(=N)N)C(=O)N[C@@H](CC(N)=O)C(=O)N[C@@H](CC(C)C)C(=O)N[C@H](C(=O)N1CCC[C@H]1C(=O)N[C@@H](CCCNC(=N)N)C(=O)N[C@H](C(=O)N[C@@H](CCC(=O)O)C(=O)N[C@@H](CO)C(=O)O)[C@@H](C)O)C(C)C)[C@@H](C)CC)C(C)C)[C@@H](C)CC [cL3, LL37] | 1.87 µM | – |
| CC[C@H](C)[C@H](NC(=O)CNC(=O)[C@H](CC(=O)O)NC(=O)[C@H](CCCNC(=N)N)NC(=O)[C@@H](NC(=O)[C@H](CC(N)=O)NC(=O)[C@H](CCC(N)=O)NC(=O)CNC(=O)[C@@H](NC(=O)[C@H](CCCCN)NC(=O)[C@H](CCC(=O)O)NC(=O)[C@@H](NC(=O)[C@H](CCCCN)NC(=O)[C@H](CCCCN)NC(=O)[C@H](Cc1ccccc1)NC(=O)[C@H](CC(C)C)NC(=O)[C@H](CCCCN)NC(=O)[C@H](Cc1c[nH]c2ccccc12)NC(=O)[C@@H](N)CCCCN)[C@@H](C)CC)C(C)C)[C@@H](C)CC)C(=O)N[C@H](C(=O)N[C@@H](CCCCN)C(=O)N[C@@H](C)C(=O)NCC(=O)N1CCC[C@H]1C(=O)N[C@@H](C)C(=O)N[C@H](C(=O)N[C@@H](C)C(=O)N[C@H](C(=O)N[C@H](C(=O)NCC(=O)N[C@@H](CCC(N)=O)C(=O)N[C@@H](C)C(=O)N[C@H](C(=O)N[C@@H](CCC(N)=O)C(=O)N[C@H](C(=O)N[C@@H](C)C(=O)N[C@@H](CCCCN)C(=O)O)[C@@H](C)CC)[C@@H](C)O)C(C)C)C(C)C)C(C)C)[C@@H](C)CC [cCeA, Cecropin A] (H-KWKLFKKIEKVGQNIRDGIIKAGPAVAVVGQATQIAK-OH) | 0.85 µM | – |
| IL-15: control monomeric IL-15 | – | 0.294 nM |
